Source: US20250313553A1, “ANNULATED 2-AMINO-3-CYANO THIOPHENES AND DERIVATIVES FOR THE TREATMENT OF CANCER” (Boehringer Ingelheim Int'l GmbH Corp., priority 2021, published 2025)
pIC50: −log10 of the molar value.

Legend:
[1] = target: T1, KRAS (G12V) and SOS1 (Homo sapiens, UniProt P01116, C118S/G12V); assay: KRAS::SOS1 AlphaScreen binding assay, KRAS G12V
T1 construct: KRAS (G12V) 1-169, N-terminal 6His-tag for purification; 6His (N, cleaved yes); TEV cleavage site
Description: (§1) Low IC50 values in this assay setting are indicative of strong inhibition of protein-protein interaction between SOS1 and KRAS:
(§2) These assays measure the inhibitory effect of compounds on KRAS mutant protein-protein interactions using the Alpha Screen technology by Perkin Elmer.
(§3) For the chosen highest assay concentration of 100 μM, 150 nL of compound solution are transferred from a 10 mM DMSO compound stock solution. A series of eleven fivefold dilutions per compound are transferred to the assay plate, compound dilutions are tested in duplicates. DMSO are added as backfill to a total volume of 150 nL.
(§4) The assays run on a fully automated robotic system in a darkened room below 100 Lux. To 150 nl of compound dilution 10 μl of a mix including KRAS mutant protein, SOS1 (final assay concentrations see above) and GDP nucleotide (Sigma G7127; final assay concentration 10 μM) in assay buffer (1×PBS, 0.1% BSA, 0.05% Tween 20) are added into columns 1-24. After 30 minutes incubation time 5 μl of Alpha Screen bead mix in assay buffer are added into columns 1-23.
(§5) Plates are kept at room temperature in a darkened incubator. After an additional 60 minutes incubation time the signal is measured in a PerkinElmer Envision HTS Multilabel Reader using the AlphaScreen specs from PerkinElmer.
(§6) IC50 values are calculated and analyzed with Boehringer Ingelheim's MEGALAB IC50 application using a 4 parametric logistic model.

[2] = target: T2, KRAS (G13D) and SOS1 (Homo sapiens, UniProt P01116, C118S/G13D); assay: KRAS::SOS1 AlphaScreen binding assay, KRAS G13D
T2 construct: KRAS (G13D) 1-169, N-terminal 6His-tag for purification; 6His (N, cleaved yes); TEV cleavage site
Excerpt: This assay can be used to examine the potency with which compounds according to the invention binding to (mutated) KRAS inhibit the protein-protein interaction between SOS1 and (mutated) KRAS e.g., KRAS WT, KRAS G12C, KRAS G12D, KRAS G12V or KRAS G13D. […] Low IC50 values in this assay setting are indicative of strong inhibition of protein-protein interaction between SOS1 and KRAS:
These assays measure the inhibitory effect of compounds on KRAS mutant protein-protein interactions using the Alpha Screen technology by Perkin Elmer. […]
Plates are kept at room temperature in a darkened incubator. After an additional 60 minutes incubation time the signal is measured in a PerkinElmer Envision HTS Multilabel Reader using the AlphaScreen specs from PerkinElmer. […]
As internal control known inhibitors of KRAS mutant::SOS1 interaction can be measured on each compound plate. […]

[3] = target: T3, KRAS (WT) and SOS1 (Homo sapiens, UniProt P01116, C118S); assay: KRAS::SOS1 AlphaScreen binding assay, KRAS WT
T3 construct: KRAS (WT) 1-169, N-terminal 6His-tag for purification; 6His (N, cleaved yes); TEV cleavage site
Description: as §1, §2, §3
as §4, with “After 30 minutes incubation time 5 μl of Alpha Screen bead mix in assay buffer are added into columns 1-23.” left out
as §5, §6

T1 sequence (P01116 1-169 isoform P01116-2 G12V/C118S): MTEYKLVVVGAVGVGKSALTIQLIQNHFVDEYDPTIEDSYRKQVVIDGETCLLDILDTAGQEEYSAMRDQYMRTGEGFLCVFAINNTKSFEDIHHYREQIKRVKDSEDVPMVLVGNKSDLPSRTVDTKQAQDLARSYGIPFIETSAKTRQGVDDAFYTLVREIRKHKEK
T3 sequence (P01116 1-169 isoform P01116-2 C118S): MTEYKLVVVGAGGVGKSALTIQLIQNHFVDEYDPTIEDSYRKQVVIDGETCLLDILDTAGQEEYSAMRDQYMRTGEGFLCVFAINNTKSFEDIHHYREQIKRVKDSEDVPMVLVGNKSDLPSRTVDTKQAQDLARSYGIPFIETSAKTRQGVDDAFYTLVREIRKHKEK
T2 sequence (P01116 1-169 isoform P01116-2 G13D/C118S): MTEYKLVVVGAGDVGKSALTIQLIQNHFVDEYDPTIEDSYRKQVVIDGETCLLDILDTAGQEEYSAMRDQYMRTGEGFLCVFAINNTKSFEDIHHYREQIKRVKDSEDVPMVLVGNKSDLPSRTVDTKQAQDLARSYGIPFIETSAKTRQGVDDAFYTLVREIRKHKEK

pIC50 [1] | pIC50 [2] | pIC50 [3] | Compound
7.28 | 6.03 | 6.90 | C[C@H]1CN(C)CCN1c1cccc(-c2noc([C@@]3(C)CCCc4sc(N)c(C#N)c43)n2)n1 [Example V-1]
8.22 |  |  | COCCCN1CCCN(c2nccc(-c3noc([C@@]4(C)CCCc5sc(N)c(C#N)c54)n3)n2)[C@@H](C)C1 [Example V-2]
7.74 |  |  | C[C@H]1CN(C)CCN1c1nccc(-c2cc([C@@]3(C)CCCc4sc(N)c(C#N)c43)on2)n1 [Example V-27]
8.05 | 6.75 | 7.55 | C[C@H](Oc1cccc(-c2noc([C@@]3(C)CCCc4sc(N)c(C#N)c43)n2)n1)[C@@H]1CCCN1C [Example V-8]
